We go through 1 compound from patent US12419966B2, “In vivo radical-mediated polymerization for targeted delivery of trophic factors” (RUTGERS, THE STATE UNIVERSITY OF NEW JERSEY, priority 2017, dated 2025).

The test system of the data set is Rat cortical neurons. Nature of the data set: Rat cortical neuron cytotoxicity (MTT). The data set is classed as cell-based. The conditions noted are these: above 500 μM. The protocol: Rat Cortical Neuron Culture and Cellular Protection Studies (Cytotoxicity and Protection): Rat cortical neurons were isolated from a timed pregnant animal at embryonic day 18 as described in the literature via techniques commonly employed in the literature. Neurons were cultured in Neurobasal media containing 2% B27 supplement, 1% KCl, 1% penicillin/streptomycin, and 0.5% L-glutamine and seeded into 96 well plates at a density of 100,000 cells/well. […] Cellular metabolic activity was then evaluated using the Vybrant MTT assay (Life Technologies) according to the manufacturer's instructions. […] Metabolic activity was again measured using the MTT assay.
(3-(4,5-dimethylthiazol-2-yl)-2,5-diphenyltetrazolium bromide) (MTT) was added to the cultures at 12 mM and allowed to incubate for 4 hours at 37° C. MTT was metabolized by mitochondrial activity to form an insoluble formazan product. The formazan product was solubilized by the addition of sodium dodecyl sulfate and further incubation for 4 hours. Absorbance measurements at 570 nm were collected to determine the amount of MTT that was metabolized by the culture and viability was reported as a percentage of MTT metabolized by uninjured control cultures.

Take `O=C1O[C@H]([C@@H](O)CO)C(O)=C1O` [ascorbic acid]: the “cellular activity of rat cortical neurons” value is on record as “decreases observed”.
